Results published in patent publication US7338669B2, “Inorganic boranophosphate salts” (Bar-Ilan University, priority 2005, dated 2008).

Legend:
[1] = Solubility of BPi salts in water and organic solvents; type: physicochemical
[2] = Stability / decomposition rate of BPi in aqueous solution at different pH, monitored by 31P NMR; type: physicochemical
Protocol: The decomposition rate was determined by measuring changes in the integration of the respective NMR signals within 96 h.
BPi is stable in neutral and basic solutions.
The borane reacts with water to liberate hydrogen gas and boric acid.

[3] = Stability of BPi towards selected organic and inorganic reagents (31P NMR); type: physicochemical
Description: The reactivity of BPi towards various organic and inorganic reagents was explored as part of the characterization of BPi's chemical nature. These reagents include: aqueous acid solution, nitrile, amide, carbodiimide, pyridine and imidazole, tosyl chloride, phosphorous oxychloride, H2, and Zn^2+ and Mg^2+ ions.
Although BH3, in complexes with a variety of sulfur/amine/oxygen compounds, is an efficient reducing agent, its reducing nature is drastically altered in Bpi. For instance, while hydrid transfer from “BH3” to water occurs readily, the BH3 moiety in BPi transfers hydride only in a highly acidic solution (pH<2). Likewise, while BH3.
A carbodiimide reagent is used for the condensations of phosphate to provide the corresponding phosphoric anhydride. […] This finding is in contrast to diethylphosphite (cyano- or methoxycarbonyl)borane analogues, which are stable to dicyclohexylecarbodiimide (DCC) (Vyakaranam et al., 2002).
The reactivity of BPi with imidazole and pyridine was studied. […] The reaction of 5′-DMT-2′-deoxy-thymidine with tetramethyl boranopyrophosphate in the presence of N-methylimidazole was reported to proceed with the partial removal of the borane group. Likewise, when pyridine was used as a solvent, partial removal of the borane group was observed (Wada et al., 2002).
The presence of divalent metal ions such as Zn^2+ and Mg^2+ in DMF and water for 48 h and 4 h, respectively, left BPi unchanged.

[4] = comparison value quoted in the text; cited from earlier work
[5] = Protocol: The ^31P NMR chemical shift was monitored as a function of the pH. A five-parameter sigmoid function was fitted to the data using Sigma Plot 2000 (SPSS, Inc.): δ=δ0+a/[1+e^−((pH-pH0)/b)]^c The inflection point, which is determined by the second derivative of the fitted sigmoid function, is the pKa value.
The acid-base character of BPi was studied by ^31P NMR—monitored pH-titration, as described in Experimental, (v).

**Q.** With inorganic boranophosphate [BPi] as the compound, how does the water solubility ([1]; in water) read?
**A.** Its water solubility is “high water solubility”.

**Q.** What about the “stability in neutral and basic solutions” value ([2]; neutral and basic solutions) of the same compound?
**A.** Its value is “stable”.

**Q.** What about the “t1/2 of degradation to phosphorus acid” value ([2]; pH 2, room temperature, 31P NMR) of the same compound?
**A.** The value was 11.5 days.

**Q.** And the “rate of degradation to phosphorus acid” value ([2]; pH 2, room temperature, 31P NMR, R^2=1.00)?
**A.** Its value is 7e-07 s⁻¹.

**Q.** And the “degradation observed by 31P NMR” value ([2]; pH 13.7, 48 h, room temperature)?
**A.** Its value is “no degradation”.

**Q.** What about the “behaviour under highly acidic conditions” value ([2]; pH<2, H2 evolved, boric acid and phosphorus acid formed) of the same compound?
**A.** Its value is “the P—B bond is cleaved”.

**Q.** And the “stability in acidic solution” value ([2]; pH>2)?
**A.** Its value is “relatively stable”.

**Q.** And the stability with imidazole ([3]; 2 or 10 equiv. imidazole in CD3OD, 96 h, 31P NMR)?
**A.** Its stability with imidazole is “remained unchanged”.

**Q.** And the “stability with divalent metal ions” value ([3]; Zn^2+ and Mg^2+ in DMF and water for 48 h and 4 h, respectively)?
**A.** Its value is “unchanged”.

**Q.** What about the “stability in acetonitrile and dimethyl formamide” value ([3]; acetonitrile and dimethyl formamide solutions, no reduction of the solvent) of the same compound?
**A.** Its value is “complete stability”.

**Q.** What about the stability in pyridine ([3]; solution in pyridine, 113 h) of the same compound?
**A.** Its stability in pyridine is “negligible cleavage of the P—B bond”.

**Q.** With “Tributylammonium Boranophosphate [Compound 2b]” as the compound, how does the “solubility in organic solvents” value ([1]; organic solvents such as MeOH, CH3CN, DMF, CHCl3) read?
**A.** Its value is “dissolves only in organic solvents”.

**Q.** Which “pKa, higher of the two comparison values” [4] does the source give for O=[PH](O)O [phosphorus acid] here?
**A.** The value was 6.2.

**Q.** And the “pKa, lower of the two comparison values (phosphoric acid: second protonation equilibrium)” value [4]?
**A.** The value was 1.8.

**Q.** What does the source list for Ammonium Boranophosphate [Compound 2a]?
**A.** pKa (first inflection point) [5]: 7.12; pKa (second inflection point) [5]: 12.54; degraded to phosphorus acid (P—B bond cleavage) ([3]; excess EDC, water pH 6.5, 37° C., 4 h, 31P NMR): 72%
